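The compound was tested at five concentrations on cells cultured in 96-well plates, with a 48-hour exposure period. TGI: concentration producing complete growth inhibition.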
Assays:
Experiment in all cases: DTP human tumour cell line panel, 48 h
[1] = tested on: COLO 205 colon
[2] = tested on: LOX IMVI melanoma
[3] = tested on: UO-31 renal
[4] = tested on: EKVX NSCLC
[5] = tested on: OVCAR-5 ovarian
[6] = tested on: 786-0 renal
[7] = tested on: SNB-19 CNS
[8] = tested on: SN12C renal
[9] = tested on: U251 CNS
[10] = tested on: MALME-3M melanoma
[11] = tested on: HOP-62 NSCLC
[12] = tested on: OVCAR-3 ovarian
[13] = tested on: ACHN renal
[14] = tested on: SK-MEL-28 melanoma
[15] = tested on: IGROV1 ovarian
[16] = tested on: HS 578T breast
[17] = tested on: MDA-MB-435
[18] = tested on: MDA-MB-231 breast
[19] = tested on: SNB-75 CNS
[20] = tested on: HT29 colon
[21] = tested on: SK-MEL-2 melanoma
[22] = tested on: NCI-H23 lung
[23] = tested on: MDA-N
[24] = tested on: HL-60(TB) leukemia
[25] = tested on: NCI-H460 lung
[26] = tested on: RPMI-8226 leukemia
[27] = tested on: NCI-H522 lung
[28] = tested on: PC-3 prostate
[29] = tested on: NCI/ADR-RES ovarian
[30] = tested on: M14 melanoma
[31] = tested on: CCRF-CEM leukemia
[32] = tested on: HCT-116 colon
[33] = tested on: OVCAR-8 ovarian
[34] = tested on: UACC-257 melanoma
[35] = tested on: DU-145 prostate
[36] = tested on: SK-MEL-5 melanoma
[37] = tested on: RXF 393 renal
[38] = tested on: UACC-62 melanoma
[39] = tested on: OVCAR-4 ovarian
[40] = tested on: SF-268 CNS
[41] = tested on: A498 renal
[42] = tested on: TK-10 renal
[43] = tested on: A549 NSCLC
[44] = tested on: SF-539 CNS
[45] = tested on: SW-620 colon
[46] = tested on: KM12 colon
[47] = tested on: CAKI-1 renal
[48] = tested on: MOLT-4 leukemia
[49] = tested on: K-562 leukemia
[50] = tested on: HOP-92 NSCLC
[51] = tested on: NCI-H226 lung
[52] = tested on: T-47D breast
[53] = tested on: SF-295 CNS
[54] = tested on: SK-OV-3 ovarian
[55] = tested on: MCF7 breast
[56] = tested on: HCT-15 colon
[57] = tested on: SR leukemia
[58] = tested on: HCC-2998 colon
[59] = tested on: BT-549 breast

COC(=O)C(CSSC[C@H](N/C(C)=C/C(C)=O)C(=O)OC)N/C(C)=C/C(C)=O (some centres undefined)
TGI [1]: > 100 µM
TGI [2]: 39.7 µM
TGI [3]: > 100 µM
TGI [4]: 41.4 µM
TGI [5]: 39.2 µM
TGI [6]: > 100 µM
TGI [7]: > 100 µM
TGI [8]: > 100 µM
TGI [9]: > 100 µM
TGI [10]: 68.6 µM
TGI [11]: > 100 µM
TGI [12]: 88.9 µM
TGI [13]: 17.1 µM
TGI [14]: > 100 µM
TGI [15]: > 100 µM
TGI [16]: 52.9 µM
TGI [17]: > 100 µM
TGI [18]: > 100 µM
TGI [19]: > 100 µM
TGI [20]: > 100 µM
TGI [21]: > 100 µM
TGI [22]: > 100 µM
TGI [23]: > 100 µM
TGI [24]: > 100 µM
TGI [25]: > 100 µM
TGI [26]: 63.5 µM
TGI [27]: 30 µM
TGI [28]: > 100 µM
TGI [29]: > 100 µM
TGI [30]: > 100 µM
TGI [31]: 71.5 µM
TGI [32]: > 100 µM
TGI [33]: 0.0686 µM
TGI [34]: > 100 µM
TGI [35]: 87.5 µM
TGI [36]: > 100 µM
TGI [37]: 52.7 µM
TGI [38]: > 100 µM
TGI [39]: > 100 µM
TGI [40]: > 100 µM
TGI [41]: > 100 µM
TGI [42]: 39.1 µM
TGI [43]: > 100 µM
TGI [44]: > 100 µM
TGI [45]: > 100 µM
TGI [46]: > 100 µM
TGI [47]: 55.4 µM
TGI [48]: > 100 µM
TGI [49]: > 100 µM
TGI [50]: > 100 µM
TGI [51]: > 100 µM
TGI [52]: 58 µM
TGI [53]: > 100 µM
TGI [54]: > 100 µM
TGI [55]: 88.6 µM

NCCCN(CCCN)CCN(CCN(CCCN)CCCN)CCN(CCCN)CCCN
TGI [1]: > 100 µM
TGI [2]: > 100 µM
TGI [3]: > 100 µM
TGI [5]: > 100 µM
TGI [7]: > 100 µM
TGI [8]: > 100 µM
TGI [9]: > 100 µM
TGI [56]: > 100 µM
TGI [11]: > 100 µM
TGI [12]: > 100 µM
TGI [13]: > 100 µM
TGI [14]: > 100 µM
TGI [15]: > 100 µM
TGI [16]: 58.5 µM
TGI [17]: > 100 µM
TGI [18]: > 100 µM
TGI [19]: 22.9 µM
TGI [20]: > 100 µM
TGI [21]: > 100 µM
TGI [22]: > 100 µM
TGI [57]: > 100 µM
TGI [23]: > 100 µM
TGI [24]: > 100 µM
TGI [25]: > 100 µM
TGI [26]: > 100 µM
TGI [27]: 63.3 µM
TGI [28]: > 100 µM
TGI [29]: > 100 µM
TGI [30]: > 100 µM
TGI [32]: > 100 µM
TGI [33]: > 100 µM
TGI [34]: > 100 µM
TGI [35]: > 100 µM
TGI [36]: > 100 µM
TGI [39]: > 100 µM
TGI [42]: > 100 µM
TGI [43]: > 100 µM
TGI [45]: > 100 µM
TGI [47]: > 100 µM
TGI [58]: > 100 µM
TGI [49]: > 100 µM
TGI [50]: > 100 µM
TGI [51]: > 100 µM
TGI [52]: > 100 µM
TGI [53]: > 100 µM
TGI [54]: > 100 µM
TGI [55]: > 100 µM

CCSCCCN(CCCSCC)CCCSCC
TGI [1]: > 100 µM
TGI [2]: > 100 µM
TGI [3]: > 100 µM
TGI [5]: > 100 µM
TGI [6]: > 100 µM
TGI [7]: > 100 µM
TGI [8]: > 100 µM
TGI [9]: > 100 µM
TGI [56]: > 100 µM
TGI [11]: > 100 µM
TGI [12]: > 100 µM
TGI [14]: > 100 µM
TGI [15]: > 100 µM
TGI [17]: > 100 µM
TGI [18]: > 100 µM
TGI [19]: > 100 µM
TGI [20]: > 100 µM
TGI [22]: > 100 µM
TGI [57]: > 100 µM
TGI [23]: > 100 µM
TGI [59]: > 100 µM
TGI [24]: > 100 µM
TGI [25]: > 100 µM
TGI [27]: > 100 µM
TGI [28]: > 100 µM
TGI [29]: > 100 µM
TGI [30]: > 100 µM
TGI [31]: > 100 µM
TGI [32]: > 100 µM
TGI [33]: > 100 µM
TGI [34]: > 100 µM
TGI [35]: > 100 µM
TGI [36]: > 100 µM
TGI [38]: > 100 µM
TGI [39]: > 100 µM
TGI [40]: > 100 µM
TGI [43]: > 100 µM
TGI [44]: > 100 µM
TGI [45]: > 100 µM
TGI [46]: > 100 µM
TGI [58]: > 100 µM
TGI [48]: > 100 µM
TGI [49]: > 100 µM
TGI [50]: 80.4 µM
TGI [52]: > 100 µM
TGI [53]: > 100 µM
TGI [54]: > 100 µM
TGI [55]: > 100 µM

COc1ccc2c(c1)c(CC(=O)O)c(C)n2C(=O)c1ccc(Cl)cc1
TGI [1]: > 100 µM
TGI [2]: > 100 µM
TGI [3]: > 100 µM
TGI [4]: > 100 µM
TGI [5]: > 100 µM
TGI [6]: > 100 µM
TGI [7]: > 100 µM
TGI [8]: > 100 µM
TGI [9]: > 100 µM
TGI [10]: > 100 µM
TGI [56]: > 100 µM
TGI [11]: > 100 µM
TGI [12]: > 100 µM
TGI [13]: > 100 µM
TGI [14]: > 100 µM
TGI [15]: > 100 µM
TGI [16]: > 100 µM
TGI [17]: > 100 µM
TGI [18]: > 100 µM
TGI [19]: > 100 µM
TGI [20]: > 100 µM
TGI [21]: > 100 µM
TGI [22]: > 100 µM
TGI [57]: > 100 µM
TGI [23]: > 100 µM
TGI [24]: > 100 µM
TGI [25]: > 100 µM
TGI [26]: > 100 µM
TGI [27]: > 100 µM
TGI [28]: > 100 µM
TGI [29]: > 100 µM
TGI [30]: > 100 µM
TGI [31]: > 100 µM
TGI [32]: > 100 µM
TGI [33]: > 100 µM
TGI [34]: > 100 µM
TGI [35]: > 100 µM
TGI [36]: > 100 µM
TGI [39]: > 100 µM
TGI [40]: > 100 µM
TGI [42]: > 100 µM
TGI [43]: > 100 µM
TGI [44]: > 100 µM
TGI [45]: > 100 µM
TGI [46]: > 100 µM
TGI [47]: > 100 µM
TGI [58]: > 100 µM
TGI [48]: > 100 µM
TGI [49]: > 100 µM
TGI [50]: > 100 µM
TGI [51]: > 100 µM
TGI [52]: > 100 µM
TGI [53]: > 100 µM
TGI [55]: > 100 µM

From PubChem BioAssay (NCI)
